{"source": "patent US6500450B1", "about": "“Composition for treating migraine headaches” (priority 1998, dated 2002)", "origin": "cited, not measured here", "key": {"migraine": {"tested_on": "migraine", "details": "in vivo"}, "[1]": {"tested_on": "migraine occurrence in patients"}, "[2]": {"tested_on": "patients with recurrent migraines", "details": "49 patients"}, "[3]": {"tested_on": "moderate to severe migraine headaches"}, "[4]": {"details": "400 mg/day with breakfast for at least three months"}}, "note": "Where a name gives a salt, the structure may show the parent alone.", "data": [{"smiles": "CC(C)NCC(O)COc1cccc2ccccc12", "note": "(stereo not drawn) [Propranolol]", "values": [{"measurement": "efficacy in migraine prophylaxis", "setting": "migraine", "value": "effective"}, {"measurement": "side effects", "setting": "migraine", "value": "fatigue, depression, impotence, insomnia, dizziness, and cold extremities"}]}, {"smiles": "CN1C[C@H](C(=O)N[C@]2(C)O[C@@]3(O)[C@@H]4CCCN4C(=O)[C@H](Cc4ccccc4)N3C2=O)C=C2c3cccc4[nH]cc(c34)C[C@H]21", "note": "[ergotamine, ergotamine tartrate]", "values": [{"measurement": "patients with complete headache relief within three hours of taking the drug", "setting": "patients with migraine; 1-mg rectal suppository, patients with migraine", "value": 73, "unit": "%"}, {"measurement": "consequence of frequent use", "setting": "patients with migraine; frequent use of the drug", "value": "rebound headache"}, {"measurement": "side effects", "setting": "patients with migraine; human, in vivo", "value": "nausea, vomiting, abdominal pain, muscle cramps, and occasionally, distal paresthesias"}]}, {"smiles": "CC[C@@H](CO)NC(=O)[C@@H]1C=C2c3cccc4c3c(cn4C)C[C@H]2N(C)C1", "note": "[methysergide, methysergide maleate]", "values": [{"measurement": "patients in whom migraine occurrence is reduced by more than half", "setting": "[1]; 6 mg dose, migraine prophylaxis", "value": 60, "unit": "%"}, {"measurement": "adverse effect of long-term use", "setting": "[1]; long-term use", "value": "associated with retroperitoneal fibrosis"}]}, {"smiles": "Cc1cc2nc3c(=O)[nH]c(=O)nc-3n(C[C@H](O)[C@H](O)[C@H](O)CO)c2cc1C", "note": "[riboflavin]", "values": [{"measurement": "side effects", "setting": "[2]; 400 mg/day for at least three months", "value": "One patient stopped treatment because of gastric intolerance, but no other side effects were reported"}, {"measurement": "fall in the mean number of migraine attacks", "setting": "[2]; [4]", "value": 67, "unit": "%"}, {"measurement": "improvement of migraine severity", "setting": "[2]; [4]", "value": 68, "unit": "%"}]}, {"smiles": "CNS(=O)(=O)Cc1ccc2[nH]cc(CCN(C)C)c2c1", "note": "[sumatriptan]", "values": [{"measurement": "reduction of the intensity of moderate to severe migraine headaches", "setting": "[3]; dose of six milligrams, injectable", "value": 70, "unit": "%"}, {"measurement": "side effects", "setting": "[3]; stated for this type of drug", "value": "distal paresthesias, tingling, heaviness, and a sensation of pressure"}]}]}
